Source: US20240366813A1, “PEPTIDE-UREA DERIVATIVE, PHARMACEUTICAL COMPOSITION CONTAINING SAME AND APPLICATION THEREOF” (Bivision Pharmaceuticals, Inc., priority 0001, published 2024)
“And” between values parts separate entries of the source, which are not always exact repeats. Equal values may be shown once.

How the values were obtained:
[1] = tested on: PSMA-positive cells LNCap; experiment: Uptake of labeled compounds by PSMA-positive cells LNCap; assay type: cell-based; settings: 37° C., 0.5 h
Experimental: LNCap cells (Shangcheng Beina Chuanglian Biotechnology Co., Ltd., Industrial Park, Chengguan Town, Shangcheng County, Xinyang City, Henan Province) were revived and passaged for expansion. After the cells were expanded to a sufficient amount, cells were seeded in a 24-well plate at a density of 1×10^4 cells/well. Uptake tests were performed when cells grew to 80%-90% confluence.
The above labeled compounds ^177Lu-E1, ^177Lu-E2, ^177Lu-E3, ^177Lu-E5, ^177Lu-E9, ^177Lu-E14 and ^177Lu-PSMA-617 were diluted with serum-free medium into 10000, 1000, 100, 10, 1, 0.1 and 0 nM. 1 mL of the diluted solution was added to a 24-well plate, and incubated at 37° C. for 0.5 h. The supernatant was discarded and the cells were washed 3 times with PBS. 250 μL of 1M NaOH solution was added to each well. The cells were pipetted until they were completely dissolved, and transferred to a scintillation vial. 250 μL of NaOH solution was added to each well again to wash the bottom of the well and transferred to a scintillation vial. 2 mL of scintillation fluid was added to each scintillation vial and shaken well. A liquid scintillation counter was used to detect radioactive counts in each vial.

[2] = In vivo metabolism test of 177Lu-labeled complex in SD rats (plasma radioactive counts); settings: for plasma radioactive counts: individual rat, 100 μL plasma; for plasma radioactive counts, MEAN: mean of rats
Experimental: Eighteen SD rats (Hangzhou Ziyuan Experimental Animal Technology Co., Ltd.), male, weighing 180-200 g, were randomly divided into 6 groups, 3 rats in each group. […] of the labeled precursor compound was injected into the tail vein of each mouse. 250 μL of orbital blood was collected into anticoagulant tubes at 5 min, 0.5 h, 1 h, 2 h, 4 h, 8 h and 24 h after administration. Blood was centrifuged at 3000 rpm for 10 min, and 100 μL of plasma was taken into scintillation vials. 2 mL of scintillation fluid was added to each scintillation vial and shaken well. A liquid scintillation counter was used to detect radioactive counts in each vial.

[3] = 5 min after tail vein injection
[4] = 0.5 h after tail vein injection

Structure (SMILES)	uptake by LNCap cells ([1]; 0.1 nM) [cpm]	uptake by LNCap cells ([1]; 1 nM) [cpm]	uptake by LNCap cells ([1]; 10 nM) [cpm]	uptake by LNCap cells ([1]; 100 nM) [cpm]	uptake by LNCap cells ([1]; 1000 nM) [cpm]	uptake by LNCap cells ([1]; 10000 nM) [cpm]	plasma radioactive counts [2, 3]	plasma radioactive counts [2, 4]	plasma radioactive counts ([2]; 1 h after tail vein injection)	plasma radioactive counts ([2]; 2 h after tail vein injection)	plasma radioactive counts ([2]; 4 h after tail vein injection)	plasma radioactive counts ([2]; 8 h after tail vein injection)	plasma radioactive counts ([2]; 24 h after tail vein injection)	plasma radioactive counts, MEAN [2, 3] [cpm]	plasma radioactive counts, MEAN [2, 4] [cpm]	plasma radioactive counts, MEAN ([2]; 1 h after tail vein injection) [cpm]	plasma radioactive counts, MEAN ([2]; 2 h after tail vein injection) [cpm]	plasma radioactive counts, MEAN ([2]; 4 h after tail vein injection) [cpm]	plasma radioactive counts, MEAN ([2]; 8 h after tail vein injection) [cpm]	plasma radioactive counts, MEAN ([2]; 24 h after tail vein injection) [cpm]
O=C([O-])CN1CCN(CC(=O)[O-])CCN(CC(=O)N2CCC3(CCC(C(=O)NC(Cc4ccc5ccccc5c4)C(=O)NCCCCC(NC(=O)NC(CCC(=O)O)C(=O)O)C(=O)O)CC3)CC2)CCN(CC(=O)[O-])CC1.[177Lu+3] (stereo not shown) [^177Lu-E9]	56	55	84	140	405	1194	30764 cpm and 38134 cpm and 30001 cpm	10391 cpm and 12249 cpm and 8575 cpm	4483 cpm and 4139 cpm and 2519 cpm	892 cpm and 652 cpm and 346 cpm	210 cpm and 196 cpm and 197 cpm	171 cpm and 184 cpm and 161 cpm	164 cpm and 162 cpm and 183 cpm	32966	10405	3714	630	201	172	170
O=C([O-])CN1CCN(CC(=O)[O-])CCN(CC(=O)N2CC3(CCC(C(=O)NC(Cc4ccc5ccccc5c4)C(=O)NCCCCC(NC(=O)NC(CCC(=O)O)C(=O)O)C(=O)O)CC3)C2)CCN(CC(=O)[O-])CC1.[177Lu+3] (stereo not shown) [^177Lu-E2]	29	91	344	596	775	1328	37703 cpm and 41406 cpm	18427 cpm and 15030 cpm	7473 cpm and 5428 cpm	1863 cpm and 1189 cpm	296 cpm and 219 cpm	178 cpm and 190 cpm	167 cpm and 170 cpm	39555	16729	6451	1526	258	184	169
